Measured values as given in patent publication US5189055A, “Phenylpyrrolic compounds used as drugs, their preparation and application” (Centre National de la Recherche Scientifique (CNRS), priority 1988, dated 1993).

Legend:
tubulin = conditions: natural substances binding to tubulin receptor sites; cited from earlier work
Vero cells = test: Cytotoxicity / cytostasis test on the Vero line, % inhibition of proliferation (crystal violet); assay type: cell-based, monkey; conditions: 72 hours
Protocol: (§1) The cytotoxicity studies were carried out, on the one hand on the Vero line (normal monkey kidney cell), Table I, and on the other hand on the KB line (human carcinoma of the nasopharynx), Table II, according to the following method:
(§2) The products were introduced at the time of culturing, which is maintained for 72 hours. The products are tested at 100, 80, 40, 20 and 10 μm [sic]. […] The percentage values for inhibition of cell proliferation were measured by a colorimetric method with crystal violet, relative to control cultures containing DMSO (≤1%).

KB cells [1] = test: Cytotoxicity / cytostasis test on the KB line, % inhibition of proliferation (crystal violet); assay type: cell-based, human; conditions: for % inhibition of proliferation: KB cells, 72 hours
Protocol: as §1, §2

KB cells [2] = test: as above; assay type: cell-based, human; conditions: 5 μm [sic], 72 hours

CC[C@]1(O)C[C@H]2CN(CCc3c([nH]c4ccccc34)[C@@](C(=O)OC)(c3cc4c(cc3OC)N(C=O)[C@H]3[C@@](O)(C(=O)OC)[C@H](OC(C)=O)[C@]5(CC)C=CCN6CC[C@]43[C@@H]65)C2)C1 [vincristine]
inhibition of tubulin polymerization (tubulin): inhibit its polymerization

COC(=O)c1[nH]cc(C)c1-c1cccc([N+](=O)[O-])c1 [(2), Methyl 4-methyl-3-(3'-nitrophenyl)-2-pyrrolecarboxylate]
% inhibition of proliferation (Vero cells; 10 μm [sic]): 0% | % inhibition of proliferation (Vero cells; 20 μm [sic]): 3% | % inhibition of proliferation (Vero cells; 40 μm [sic]): 38% | % inhibition of proliferation (Vero cells; 80 μm [sic]): 75% | % inhibition of proliferation (Vero cells; 100 μm [sic]): 77% | % inhibition of proliferation (KB cells [1]; 10 μm [sic]): 0% | % inhibition of proliferation (KB cells [1]; 20 μm [sic]): 0% | % inhibition of proliferation (KB cells [1]; 40 μm [sic]): 10% | % inhibition of proliferation (KB cells [1]; 80 μm [sic]): 50% | % inhibition of proliferation (KB cells [1]; 100 μm [sic]): 72%

CCCCc1c(C)c(-c2ccccc2N(C)C(=O)OCc2ccccc2)c(CCC2OCCO2)n1C [(22), 5-Butyl-1,4-dimethyl-2-(1,4-dioxa-2-ethylcarbaldehyde)-3-[2'-(N-benzyloxycarbonyl-N-methylamino)phenyl]pyrrole]
% inhibition of proliferation (Vero cells; 10 μm [sic]): 0% | % inhibition of proliferation (Vero cells; 20 μm [sic]): 0% | % inhibition of proliferation (Vero cells; 40 μm [sic]): 0% | % inhibition of proliferation (Vero cells; 80 μm [sic]): 54% | % inhibition of proliferation (Vero cells; 100 μm [sic]): 54% | % inhibition of proliferation (KB cells [1]; 10 μm [sic]): 0% | % inhibition of proliferation (KB cells [1]; 20 μm [sic]): 0% | % inhibition of proliferation (KB cells [1]; 40 μm [sic]): 0% | % inhibition of proliferation (KB cells [1]; 80 μm [sic]): 44% | % inhibition of proliferation (KB cells [1]; 100 μm [sic]): 59%

Cc1cn(C)c(C(=O)N(C(=O)NC2CCCCC2)C2CCCCC2)c1-c1ccccc1[N+](=O)[O-] [(10), 1,4-Dimethyl-3-(2'-nitrophenyl)pyrrole-2(N,N'-cyclohexylureidocarboxamide)]
% inhibition of proliferation (Vero cells; 10 μm [sic]): 0% | % inhibition of proliferation (Vero cells; 20 μm [sic]): 0% | % inhibition of proliferation (Vero cells; 40 μm [sic]): 25% | % inhibition of proliferation (Vero cells; 80 μm [sic]): 100% | % inhibition of proliferation (Vero cells; 100 μm [sic]): 100% | % inhibition of proliferation (KB cells [1]; 10 μm [sic]): 0% | % inhibition of proliferation (KB cells [1]; 20 μm [sic]): 0% | % inhibition of proliferation (KB cells [1]; 40 μm [sic]): 0% | % inhibition of proliferation (KB cells [1]; 80 μm [sic]): 27% | % inhibition of proliferation (KB cells [1]; 100 μm [sic]): 45%

CC[C@]1(O)C[C@@H]2CN(CCc3c([nH]c4ccccc34)[C@@](C(=O)OC)(c3cc4c(cc3OC)N(C)[C@H]3[C@@](O)(C(=O)OC)[C@H](OC(C)=O)[C@]5(CC)C=CCN6CC[C@]43[C@@H]65)C2)C1 [vinblastine]
inhibition of tubulin polymerization (tubulin): inhibit its polymerization | spiralization of tubulin (tubulin): can cause its spiralization

Cc1c[nH]c2c(=O)[nH]c3ccccc3c12 [(4)]
% inhibition of proliferation (Vero cells; 10 μm [sic]): 0% | % inhibition of proliferation (Vero cells; 20 μm [sic]): 0% | % inhibition of proliferation (Vero cells; 40 μm [sic]): 45% | % inhibition of proliferation (Vero cells; 80 μm [sic]): 49-70% | % inhibition of proliferation (Vero cells; 100 μm [sic]): 69-84% | % inhibition of proliferation (KB cells [1]; 10 μm [sic]): 0% | % inhibition of proliferation (KB cells [1]; 20 μm [sic]): 72% | % inhibition of proliferation (KB cells [1]; 40 μm [sic]): 100% | % inhibition of proliferation (KB cells [1]; 80 μm [sic]): 60% | % inhibition of proliferation (KB cells [1]; 100 μm [sic]): 68%

CCOC(=O)c1[nH]cc(C)c1-c1ccccc1NC(=O)CNC(=O)OCc1ccccc1 [(6), Ethyl 3-[2'-(N-benzyloxycarbonylglycylamido)phenyl]-4-methyl-2-pyrrolecarboxylat]
% inhibition of proliferation (Vero cells; 10 μm [sic]): 0% | % inhibition of proliferation (Vero cells; 20 μm [sic]): 0% | % inhibition of proliferation (Vero cells; 40 μm [sic]): 4% | % inhibition of proliferation (Vero cells; 80 μm [sic]): 48% | % inhibition of proliferation (Vero cells; 100 μm [sic]): 78% | % inhibition of proliferation (KB cells [1]; 10 μm [sic]): 0% | % inhibition of proliferation (KB cells [1]; 20 μm [sic]): 22% | % inhibition of proliferation (KB cells [1]; 40 μm [sic]): 31% | % inhibition of proliferation (KB cells [1]; 80 μm [sic]): 52% | % inhibition of proliferation (KB cells [1]; 100 μm [sic]): 68%

CCOC(=O)c1[nH]cc(C)c1-c1ccccc1 [(1), Ethyl 4-methyl-3-phenyl-2-pyrrolecarboxylate]
% inhibition of proliferation (Vero cells; 10 μm [sic]): 0% | % inhibition of proliferation (Vero cells; 20 μm [sic]): 0% | % inhibition of proliferation (Vero cells; 40 μm [sic]): 20% | % inhibition of proliferation (Vero cells; 80 μm [sic]): 46% | % inhibition of proliferation (Vero cells; 100 μm [sic]): 63% | % inhibition of proliferation (KB cells [1]; 10 μm [sic]): 0% | % inhibition of proliferation (KB cells [1]; 20 μm [sic]): 0% | % inhibition of proliferation (KB cells [1]; 40 μm [sic]): 0% | % inhibition of proliferation (KB cells [1]; 80 μm [sic]): 35% | % inhibition of proliferation (KB cells [1]; 100 μm [sic]): 43%

COc1cc([C@@H]2c3cc4c(cc3[C@H](O)[C@H]3COC(=O)[C@H]23)OCO4)cc(OC)c1OC [podophyllotoxin]
inhibition of tubulin polymerization (tubulin): inhibit its polymerization

CCCCc1c(C)c(-c2ccccc2NC)c(CCC2OCCO2)n1C [(23), 5-Butyl-1,4-dimethyl-2-(1,4-dioxa-2-ethylcarbaldehyde)-3-[2'-(N-methylamino)phenyl]pyrrole]
% inhibition of proliferation (Vero cells; 10 μm [sic]): 0% | % inhibition of proliferation (Vero cells; 20 μm [sic]): 0% | % inhibition of proliferation (Vero cells; 40 μm [sic]): 25% | % inhibition of proliferation (Vero cells; 80 μm [sic]): 69% | % inhibition of proliferation (Vero cells; 100 μm [sic]): 80% | % inhibition of proliferation (KB cells [2]): 4% | % inhibition of proliferation (KB cells [1]; 10 μm [sic]): 48% | % inhibition of proliferation (KB cells [1]; 20 μm [sic]): 66% | % inhibition of proliferation (KB cells [1]; 40 μm [sic]): 81% | % inhibition of proliferation (KB cells [1]; 80 μm [sic]): 94% | % inhibition of proliferation (KB cells [1]; 100 μm [sic]): 100% | selectivity with respect to the KB line (KB cells [1]; at low concentration, KB versus Vero): some degree of selectivity at low concentration with respect to the KB line
